# Source: patent US20070010664A1, “Gene expression in the central nervous system regulated by neuroleptic agents” (priority 2001, published 2007)
# Experiments:
# [1] = system: CLZ_40 (SEQ ID NO:12) mRNA; test: Real Time PCR validation of CLZ_40; assay type: in vivo, mouse; conditions: mice chronically (2 weeks) treated
# From the text: Validation of the DST expression for select DSTs was done by Real Time PCR using the ABI PRISM 7700 Sequence Detection System (PE Biosystems) that combines PCR, cycle-by-cycle fluorescence detection and analysis software for high-throughput quantitation of nucleic acid sequences. […] Standards for normalizing the quantitation of gene levels were chosen from a panel of 5 mouse “housekeeping” genes.
# [2] = system: mouse sequence homolog to human KIAA1451 (SEQ ID NO:79); test: Real Time PCR of mouse sequence homolog to human KIAA1451; conditions: mice chronically treated
# CLZ_5 (apoD) mRNA = test: Real Time PCR validation of CLZ_5 (apoD); assay type: in vivo, mouse; conditions: clozapine or haloperidol treated mice
# [3] = system: CLZ_44 (SEQ ID NO:38) mRNA; test: Northern blot analysis of CLZ_44 in striatum/nucleus accumbens; assay type: in vivo, mouse; conditions: 2 weeks of treatment; clozapine 7.5 mg/kg, haloperidol 4 mg/kg, ketanserin 4 mg/kg
# Protocol: FIG. 39 is a graphical representation of a Northern Blot analysis of clone CLZ—44 (ACGG 352) (SEQ ID NO:38), where an agarose gel containing poly A enriched mRNA from the striatum/nucleus accumbens of clozapine-treated mice as well as size standards was blotted after electrophoresis and probed with radiolabelled CLZ—44.
# In further characterization of CLZ—44, Northern blot analyses were performed to determine the pattern of expression in the striatum/nucleus accumbens after 2 weeks of treatment of control mice, clozapine-treated mice, haloperidol-treated mice, and ketanserin-treated mice (FIG. 39). Ketanserin is a 5HT2A/2C—selective antagonist, and is used to determine serotonorgic involvement in these drug effects. FIG. 39 is a graphical representation of the described northern blot analyses.
# apoD mRNA [4] = test: In situ hybridization analysis of apoD (CLZ_5) in mouse brain; assay type: in vivo; conditions: clozapine 7.5 mg/kg five days and two weeks: striatum, cortex, globus pallidus, thalamus, white matter tracts; haloperidol: gray or white matter regions
# Protocol: In further characterization of CLZ—43, in situ hybridization analysis using an antisense cRNA probe directed against the 3′ end of CLZ—43 were performed to show the pattern of CLZ—43 mRNA expression (FIG. 4A-F). In situ hybridization was performed on free-floating coronal sections (25 μM thick) with an ^35S-labeled, single-stranded antisense cRNA probe of CLZ—43. Coronal sections were hybridized at 55° C for 16 hour with an ^35S-labeled, single-stranded antisense cRNA probe of CLZ—43 at 10^7 cpm/ml. The probe was synthesized from the 3′-ended cDNA TOGA™ clone using the Maxiscript Transcription Kit (Ambion, Austin, Tex.). Excess probe was removed by washing with 2×SSC (I×SSC=[…]) containing 14 mM β-mercaptoethanol (30 minutes), followed by incubation with 4 μg/ml ribonuclease in 0.5 M NaCl/0.05 M EDTA/0.05 M Tris-HCl, pH 7.5, for 1 hour at 37° C. High stringency washes were carried out at 55° C. for 2 hours in 0.5×SSC/50% formamide/0.01 M β-mercaptoethanol, and then at 68° C. for 1 hour in 0.1×SSC/0.01 M β-mercaptoethanol/0.5% sarkosyl. […]
# To investigate additional sites of apoD induction, in situ hybridization analysis was performed on brains from saline- and clozapine-treated mice. […] Increases in apoD expression were also detected in white matter tracts, predominantly the corpus callosum (cc), anterior commissure, internal capsule (ic) and optic tract (opt). […]
# [5] = system: CLZ_43 (SEQ ID NO:37) mRNA; test: Real Time PCR validation of CLZ_43; conditions: clozapine 12 days; haloperidol 14 days; relative to untreated mice
# [6] = system: mRNAs (DSTs) expressed in striatum/nucleus accumbens; test: TOGA analysis of mRNA from striatum/nucleus accumbens of neuroleptic-treated mice (Table 1); conditions: haloperidol experiment in duplicate, average
# apoD mRNA [7] = test: apoD mRNA expression in mouse brain after 5HT2 antagonists (preliminary results); assay type: in vivo
# [8] = system: CLZ_40 (TTGT 266) mRNA in striatum and amygdala; test: TOGA analysis of mRNA from brain of morphine-treated mice; assay type: in vivo, mouse
# Protocol: For the morphine studies, male C57B1/6J mice (20-28 g) were housed as previously described in Example 1 and divided into the following groups: 1) a control group, in which the mice were subcutaneusly implanted with one placebo pellet upon halothane anaesthesia; 2) an acute morphine group, in which the mice received a morphine intraperitoneal injection of 10 mg/kg; 3) a chronic or tolerant group, in which mice were rendered drug-tolerant and dependent by means of subcutaneous implantation of a single pellet containing 75 mg of morphine free base for 3 days; and 4) a withdrawal group, in which the mice rendered tolerant to morphine were injected intraperitoneally with naltrexone 1 mg/kg. […] Their brains were rapidly removed. The striatum, including the nucleus accumbens, and block of tissues containing the amygdala complex were dissected under microscope and collected in ice-cold RNA extraction buffer.
smiles,measurement,setting,value
CN1CCN(C2=Nc3cc(Cl)ccc3Nc3ccccc32)CC1 [clozapine],"decrease in expression of CLZ_40, Real Time PCR",[1],0.37 fold
same,"increase in expression of mouse homolog to human KIAA1451, Real Time PCR",[2],2.09 fold
O=C(CCCN1CCC(O)(c2ccc(Cl)cc2)CC1)c1ccc(F)cc1 [haloperidol],"decrease in expression of CLZ_40, Real Time PCR",[1],0.66 fold
same,"increase in expression of CLZ_5 (apoD), Real Time PCR",CLZ_5 (apoD) mRNA,1.75 fold
same,"CLZ_44 expression, Northern",[3],up-regulated
same,"apoD mRNA, in situ hybridization",apoD mRNA [4],did not reveal substantial increases
same,"CLZ_43 expression, TOGA and Real Time PCR",[5],not significantly responsive
same,"increase in expression of mouse homolog to human KIAA1451, Real Time PCR",[2],2.57 fold
same,CLZ_43 TOGA profile for the haloperidol response,[6],1.08 fold
O=C(c1ccc(F)cc1)C1CCN(CCn2c(=O)[nH]c3ccccc3c2=O)CC1 [ketanserin],"CLZ_44 expression, Northern",[3],up-regulated
same,apoD mRNA expression in mouse brain,apoD mRNA [7],apparent upregulation
CN1CC[C@]23c4c5ccc(O)c4O[C@H]2[C@@H](O)C=C[C@H]3[C@H]1C5 [morphine],"CLZ_40 expression in striatum, TOGA","[8]; acute morphine 10 mg/kg i.p., withdrawal (naltrexone 1 mg/kg in morphine-tolerant mice)",downregulated in withdrawal striatum but not acutely treated striatum
same,"CLZ_40 expression in amygdala, TOGA","[8]; acutely treated (morphine 10 mg/kg i.p., 4 hours)",slightly upregulated
same,"CLZ_40 expression in amygdala, TOGA","[8]; chronically treated (75 mg pellet, 3 days) and withdrawal",increasingly upregulated
